For orientation: GI50 means the concentration that inhibits growth by half. As a reminder, the TGI is the concentration at which net growth stops.

Structures are written as SMILES. Where “and” joins values, the source holds several entries; their conditions need not be identical. Equal entries are not always repeated.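 Dose response: 5 concentrations. Exposure: 48 h. Format: 96-well plates. Endpoint: linear interpolation; highest concentration if not reached. The concentration for 50% growth inhibition is given as GI50. TGI: concentration producing complete growth inhibition.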

The record followed here is PubChem BioAssay (NCI).

Common to all, as to experiment: DTP human tumour cell line panel, 48 h
Assay [1] relates to IGROV1 ovarian.
The test system of assay [2] is HOP-62 NSCLC.
For assay [3], the system named is SF-295 CNS.
For assay [4], the system named is HT29 colon.
In assay [5] the test system is MDA-MB-435.
The test system of assay [6] is MCF7 breast.
In assay [7] the test system is RXF 393 renal.
The test system of assay [8] is UACC-257 melanoma.
Assay [9] has as its system HCT-15 colon.
Assay [10] concerns HL-60(TB) leukemia.

In the case of `O=C1C(SCCO)=C(SCCO)C(=O)N1c1ccc(-c2ccccc2)cc1`, the GI50 in [1] is 2020 nM; in assay [2], 4880 nM; in assay [3], 20700 nM; in assay [4], 1020 nM; in assay [5], 4980 nM; in [6], 2170 nM. Also, the GI50 was 1190 nM in assay [7], 3320 nM in [8], 2130 nM in assay [9] and 18700 nM in assay [10]. The TGI in assay [1] came to 4670 nM; in assay [2] it was 10600 nM; in assay [3] it was 46100 nM; in assay [4], 3500 nM; in assay [5] it was 12800 nM; in assay [6], 7740 nM. Also, the TGI in assay [7] amounted to 2730 nM; in assay [8] it was 7620 nM; in [9], 5310 nM; in [10] it was 51600 nM.

Consider `OCCn1cnc2c(SCc3ccccc3)ncnc21`, for which the TGI in [1], in assay [2], in [3], in [4], in assay [5] and in assay [6] was above 100000 nM each time. Moreover, the TGI in assay [7], in assay [8], in [9] and in assay [10] was above 100000 nM each time.

For the compound `Cc1ccc(-c2csc(NC(=O)N3CCN(c4cc5c(cc4F)c(=O)c(C(=O)O)cn5C4CC4)CC3)n2)cc1`, the GI50 was 482 nM in [1]; 484 nM in [2]; 762 nM in assay [3]; 307 nM in assay [4]; 2060 nM in assay [5]; 490 nM in assay [6]. Besides, the GI50 in [7] was 602 nM; in [8] it was 2000 nM; in assay [9], 417 nM; in [10], 796 nM. In addition, the TGI was above 100000 nM in [1]; above 100000 nM in assay [2]; 28500 nM in [3]; above 100000 nM in [4]; above 100000 nM in assay [5]; above 100000 nM in assay [6]. Besides, the TGI was 55000 nM in assay [7], 6580 nM in [8], above 100000 nM in [9] and 4510 nM in assay [10].

Take `O1[As]2O[As]3O[As]1O[As](O2)O3`: the GI50 in [1] was 457 nM; in assay [2], 1000 nM; in [3], 2630 nM; in assay [4], 876 nM; in [5], 1640 nM; in [6], 388 nM. The GI50 in assay [7] is 502 nM; in assay [8], 1500 nM; in assay [9], 1080 nM; in [10] it was 344 nM. For the same compound, the TGI in [1] came out at 2700 nM; in assay [2], 2550 nM; in [3], 9000 nM; in assay [4], 4670 nM; in assay [5] it was 7690 nM; in [6], 2290 nM. Besides, the TGI is 1850 nM in assay [7], 3240 nM in [8], 4790 nM in assay [9] and 1730 nM in assay [10].

With `O=S(=O)(c1cccc2c(I)cccc12)N1CCCNCC1`, the GI50 in assay [1] is 15800 nM; in [2], 16500 nM; in [3], 16100 nM; in [4], 20800 nM; in assay [5], 17700 nM; in assay [6], 36100 nM. Further, the GI50 was 27300 nM in [7], 23100 nM in assay [8], 17900 nM in [9] and 14200 nM in assay [10]. Further, the TGI in assay [1] was 31400 nM; in assay [2] it was 34400 nM; in [3], 34100 nM; in assay [4] it was 55300 nM; in assay [5], 35600 nM; in assay [6], above 100000 nM. The TGI in assay [7] was determined as 73000 nM; in assay [8] it was 43200 nM; in assay [9], 34700 nM; in assay [10], 43400 nM.

For `Cc1ccc(-c2nc3nc(-c4ccccc4)nc(N4CCNCC4)c3o2)cc1`, the GI50 is 577 nM in assay [1]; 1480 nM in assay [2]; 589 nM in [3]; 242 nM in assay [4]; 1580 nM in assay [5]; 401 nM in assay [6]. In addition, the GI50 is 1430 nM in assay [7], 1980 nM in [8], 291 nM in assay [9] and 215 nM in [10]. Also, the TGI in assay [1] is 1410 nM; in assay [2] it was 2980 nM; in assay [3], 1190 nM; in assay [4] it was 567 nM; in [5] it was 3040 nM; in assay [6], 1730 nM. The TGI in assay [7] worked out at 2970 nM; in [8] it was 3800 nM; in [9] it was 834 nM; in [10] it was 463 nM.

Turning to `NC(=O)Nc1cc(-c2cccc(F)c2)sc1C(=O)N[C@H]1CCCNC1`, the GI50 was 70.1 nM and 270 nM in assay [1]; 87.6 nM and 292 nM in assay [2]; 39.7 nM and 88.2 nM in assay [3]; 250 nM and 282 nM in assay [4]; 69 nM and 181 nM in [5]; 28.5 nM and 144 nM in assay [6]. Also, the GI50 in assay [7] is 5.54 nM and 39.5 nM; in assay [8], 2360 nM and 1910 nM; in assay [9], 1300 nM and 1960 nM; in [10] it was 101 nM and 291 nM. In addition, the TGI in [1] is 1160 nM and 1740 nM; in assay [2], 1670 nM and 2820 nM; in assay [3] it was 776 nM and 2870 nM; in assay [4], > 10000 nM and 1370 nM; in assay [5], 371 nM and 668 nM; in assay [6], > 10000 nM and 13600 nM. Besides, the TGI in assay [7] is 25.5 nM and 244 nM; in [8], > 10000 nM and 9820 nM; in assay [9], > 7180 nM and 10700 nM; in [10], 3880 nM and 1280 nM.

As for `O=[N+]([O-])c1cc(Cl)cnc1Br`, the total growth inhibition concentration (TGI) in assay [1] worked out at 8320 nM; in [2] it was 35100 nM; in assay [3], 10600 nM; in assay [4], 8510 nM; in assay [5], 5400 nM; in [6] it was 2840 nM. In addition, the TGI stood at 3120 nM in assay [7], 22600 nM in assay [8], 7110 nM in [9] and 9110 nM in assay [10].
